The structures appear in SMILES notation.

The data set in a line: gradient 5% acetonitrile 3 min, to 50% in 2 min, to 85% in 15 min, held 3 min, 100 µL/min. The note with it: column: Zorbax Extend-C18 2.1 x 50 mm; eluents: water / acetonitrile, 0.1% formic acid. A digest of the protocol:
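Mixtures of ~100 pure standards were chromatographed on a Zorbax Extend-C18 column (2.1 × 50 mm, 1.8 μm) at 100 μL/min using water and acetonitrile, each with 0.1% formic acid. Detection used a quadrupole time-of-flight mass spectrometer in positive and negative ionization mode, and data collection spanned 3 months. Retention time was obtained from adduct peaks picked computationally and each checked manually.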
On to `COc1ccc(OC)c(NC(=O)N2CCC(n3c(C)nc4cccnc43)CC2)c1`, for which the RP-LC retention time turned out to be 631 s.
For the compound `COCC(=O)N(CCC(C)C)CC(=O)N1CCc2sccc2C1COc1ccccc1F` (centres undefined), the RP-LC retention time amounted to 958 s.
Compound `O=C(Nc1ccc(F)cc1F)N1CCCC1c1nc(-c2ccc(F)cc2F)no1` (centres undefined) showed an RP-LC retention time of 946 s.
For `O=C(NC(Cc1ccccc1)c1nnc(N2CCCCC2)o1)c1ccco1` (centres undefined) the value was 775 s; for `O=C(Nc1ccc(-c2nc(-c3ccccc3)no2)cc1)C1CC(=O)N(c2ccccc2)C1` (centres undefined), 1030 s.
`CCc1noc(-c2cccn2Cc2cc(F)cc(F)c2)n1` came in with an RP-LC retention time of 1160 s.
For `COCCNC(=O)C1CN(C(=O)c2ccco2)CC1c1ccc(OC)cc1OC` (centres undefined) the value was 922 s; for `COc1cc(-c2nc3ncccn3c2Nc2cccc(Cl)c2C)ccc1O`, 715 s.
`CCNc1ncnc2sc3c(c12)CCN(C(=O)CC)C3` gave an RP-LC retention time of 617 s.
The value for `COc1cccc(N2CCN(C(=O)C3CCCN(c4cnc5nccnc5c4)C3)CC2)c1` (centres undefined) was 737 s; that for `Cc1cc(C)cc(NC(=O)c2c(O)c3cccnc3n(-c3ccc(F)cc3)c2=O)c1` was 803 s; that for `CCCCNC(=O)CCC1CCN(c2cc(NCCC)ncn2)CC1` was 658 s.
The value for `CC1CCC(NC(=O)C2CCN(c3nc4ccccc4[nH]3)CC2)CC1` (centres undefined) was 649 s.
The compound `CC1Cc2ccccc2N1C(=O)C12CCC(C)(C(=O)O1)C2(C)C` (centres undefined) gave an RP-LC retention time of 1000 s.
The compound `COc1ccc2cc(C(=O)N3CCC(CC(=O)NCCc4c[nH]c5ccc(C)cc45)CC3)[nH]c2c1` yielded an RP-LC retention time of 817 s.
In turn, `COc1ccccc1C(=O)NC1CCN(c2ccccc2)C1=O` (centres undefined) showed an RP-LC retention time of 789 s.
`O=C(Cc1c(Sc2ccc(F)cc2)[nH]c2ccccc12)N1CCN(c2ccccn2)CC1` showed an RP-LC retention time of 714 s.
`CC(C)NC(=O)Cn1c(-c2ccccc2F)nc2ccccc21` yielded an RP-LC retention time of 589 s.
The value for `CCOc1ccc(-c2noc(Cn3nc(-c4ccc(C)c(C)c4)ccc3=O)n2)cc1` was 1230 s; that for `CCOc1ccc(S(=O)(=O)N2CCC(C(=O)NCCO)CC2)cc1` was 665 s; that for `Cc1ccc(C)c(NC(=O)Cn2c(N)nc(C)cc2=O)c1` was 596 s.
As to `O=C(c1ccoc1)N1CCCC(OCc2nc(C3CC3)no2)C1` (centres undefined), the RP-LC retention time worked out at 742 s.
`CCc1ccc(NC(=O)c2cn(C)nc2S(=O)(=O)N2CCSCC2)cc1`: the RP-LC retention time was 1040 s.
Compound `Cc1cc(C)c2c(N3CCSCC3)nc(C(=O)N(C)Cc3ccccc3)nc2n1` displayed an RP-LC retention time of 682 s.
Compound `Cc1nc(CC(=O)Nc2nc(-c3ccc(C)c(C)c3)cs2)cs1` showed an RP-LC retention time of 989 s.
With `COc1cc(NC(=O)CN2CCSc3ccccc32)cc(OC)c1OC`, the RP-LC retention time came to 890 s.
`CCCCN(C)c1ccc2nnc(CCc3nc(-c4cccc(C)c4)no3)n2n1` had an RP-LC retention time of 951 s.
With `COCCN1C(=O)CCc2cc(NC(=O)C3CCC3)ccc21`, the RP-LC retention time came to 673 s.
As for `CCOC(=O)C1=C(C)N(CC(=O)NC2CCCC2)c2ncnn2C1c1ccc(C)cc1` (centres undefined), the RP-LC retention time amounted to 897 s.
The value for `CCc1cc(=O)n(CC(=O)N2CCc3ccccc32)c(N)n1` was 627 s; that for `CCCCOC(=O)c1ccc(NC(=O)c2c(OCC)cc(=O)n3c2CCCC3)cc1` was 910 s.
In turn, `CCSc1nc2ccc(NS(=O)(=O)c3cccc(F)c3)cc2s1` yielded an RP-LC retention time of 998 s.
For `Cc1ncsc1C1N(C2CCN(C(=O)C3CCC3)CC2)C(=O)C12CCCC2` (centres undefined), the RP-LC retention time came to 661 s.
For the compound `Cc1ccc(-c2noc(Cn3c(=O)n(-c4ccc(F)cc4)c(=O)c4sccc43)n2)cc1C`, the RP-LC retention time worked out at 1080 s.
